Source: US5091389A, “Lipophilic macrolide useful as an immunosuppressant” (Merck & Co., Inc., priority 1991, dated 1992)

Tests used:
mouse T cells = assay: Inhibition of T-cell proliferation (mouse T cells stimulated with ionomycin + PMA, tritiated-thymidine incorporation); type: cell-based; details: for Percent Inhibition of Proliferation / reversal of inhibitory activity by exogenous IL-2: mouse T cells; for reversal of inhibitory activity by exogenous IL-2: exogenous IL-2 (50 units/ml)
From the text: Biological activity as a immunosupressant can be measured in terms of inhibition of T-cell proliferation.

[1] = system: heterotopic heart allografts; details: rats given heterotopic heart allografts, cited from earlier work
immune response = details: rats; cited from earlier work
[2] = system: heart, kidney, bowel, pancreas or other transplantation; details: in combination with Cyclosporin A; cited from earlier work

Structure (SMILES)	Percent Inhibition of Proliferation (mouse T cells; 0.001 μM, ionomycin + PMA) [%]	Percent Inhibition of Proliferation (mouse T cells; 0.01 μM, ionomycin + PMA) [%]	Percent Inhibition of Proliferation (mouse T cells; 0.12 μM, ionomycin + PMA) [%]	Percent Inhibition of Proliferation (mouse T cells; 1.2 μM, ionomycin + PMA) [%]	Percent Inhibition of Proliferation (mouse T cells; 11.2 μM, ionomycin + PMA) [%]	reversal of inhibitory activity by exogenous IL-2 (mouse T cells; ionomycin + PMA)	inhibition of proliferation of mouse T cells (qualitative) (mouse T cells; ionomycin + PMA)	toxicity ([1]; compared with what would be anticipated with FK-506)	immunosuppression in heart allograft recipients [1]	inhibition of the response to allergic encephalomyelitis, adjuvant-induced arthritis and antibody production (immune response)	effect on amount of Cyclosporin A required [2]	effect on nephrotoxicity of Cyclosporin A [2]	inhibition at 1.1 µM (mouse T cells; Mus musculus, T-cell, read-out: inhibited the proliferation) [%]
COC1CC2CCC(C)C(O)(O2)C(=O)C(=O)N2CCCCC2C(=O)OC(C(C)CC2CCC(O)C(OC)C2)CC(=O)C(C)/C=C(\C)C(O)C(O)C(=O)C(C)CC(C)/C=C/C=C/C=C/1C (centres unmarked) [29-desmethyl-rapamycin, 29-desmethyl rapamycin]	7	32	49	59	88	not reversed by exogenous IL-2	found to inhibit the proliferation of mouse T cells	–	–	–	–	–	–
CO[C@H]1C[C@@H]2CC[C@@H](C)[C@@](O)(O2)C(=O)C(=O)N2CCCC[C@H]2C(=O)O[C@H]([C@H](C)C[C@@H]2CC[C@@H](O)[C@H](OC)C2)CC(=O)[C@H](C)/C=C(\C)[C@@H](O)[C@@H](OC)C(=O)[C@H](C)C[C@H](C)/C=C/C=C/C=C/1C [rapamycin]	–	–	–	–	–	not reversed by exogenous IL-2	–	less toxicity was said to be experienced than would be anticipated with FK-506	immunosuppressive in rats given heterotopic heart allografts	inhibiting the response to allergic encephalomyelitis,adjuvant-induced arthritis and antibody production in rats	reducing the amount of Cyclosporin A required to produce its immunosupressive effect	effectively reducing the nephrotoxicity inherent in treatment with Cyclosporin A	65
